Measurements reported in the supplement of paper PMC8612539.
Converted amounts (≈) assume the structure as drawn.

System: Histophilus somni
Assay: minimum inhibitory concentration (MIC)
Description: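 Broth microdilution MIC (Sensititre BOPO7F bovine plate, CLSI methods) of 19 antimicrobials against field isolates of P. multocida, M. haemolytica, H. somni (deep nasopharyngeal swabs) and E. coli, Enterococcus spp. (rectal swabs) from weaned dairy heifers. Incubation 16-24 h at 35 C. MIC is the lowest concentration preventing visible growth. Values with <= or > lie at the tested range limits. Trimethoprim-sulfamethoxazole is given as the trimethoprim component of a 1:19 mixture.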

CNC(C)C1CCC(N)C(OC2C(N)CC(N)C(OC3OCC(C)(O)C(NC)C3O)C2O)O1 (configuration not stated) [Gentamicin]
Conditions	minimum inhibitory concentration [µg/mL]
isolate (source animal id): 3	8 (≈ 16.8 µM)
isolate (source animal id): 4	8 (≈ 16.8 µM)
isolate (source animal id): 7	4 (≈ 8.38 µM)
isolate (source animal id): 14	4 (≈ 8.38 µM)
isolate (source animal id): 15	16 (≈ 33.5 µM)
isolate (source animal id): 17	≤ 1
isolate (source animal id): 18	16 (≈ 33.5 µM)
isolate (source animal id): 20	≤ 1
isolate (source animal id): 23	16 (≈ 33.5 µM)
isolate (source animal id): 45	4 (≈ 8.38 µM)
isolate (source animal id): 53	4 (≈ 8.38 µM)
isolate (source animal id): 83	16 (≈ 33.5 µM)
isolate (source animal id): 88	4 (≈ 8.38 µM)
isolate (source animal id): 92	16 (≈ 33.5 µM)
isolate (source animal id): 93	4 (≈ 8.38 µM)
isolate (source animal id): 99	16 (≈ 33.5 µM)
isolate (source animal id): 100	16 (≈ 33.5 µM)
isolate (source animal id): 105	16 (≈ 33.5 µM)
isolate (source animal id): 107	16 (≈ 33.5 µM)
isolate (source animal id): 108	16 (≈ 33.5 µM)
isolate (source animal id): 109	16 (≈ 33.5 µM)
isolate (source animal id): 110	16 (≈ 33.5 µM)
isolate (source animal id): 117	4 (≈ 8.38 µM)
isolate (source animal id): 121	4 (≈ 8.38 µM)
isolate (source animal id): 123	8 (≈ 16.8 µM)
isolate (source animal id): 124	8 (≈ 16.8 µM)
isolate (source animal id): 127	8 (≈ 16.8 µM)
isolate (source animal id): 128	8 (≈ 16.8 µM)
isolate (source animal id): 130	> 16
isolate (source animal id): 132	8 (≈ 16.8 µM)
isolate (source animal id): 135	8 (≈ 16.8 µM)
isolate (source animal id): 140	8 (≈ 16.8 µM)
isolate (source animal id): 141	4 (≈ 8.38 µM)
isolate (source animal id): 142	8 (≈ 16.8 µM)
isolate (source animal id): 144	8 (≈ 16.8 µM)
isolate (source animal id): 146	> 16
isolate (source animal id): 147	16 (≈ 33.5 µM)
isolate (source animal id): 151	8 (≈ 16.8 µM)
isolate (source animal id): 153	8 (≈ 16.8 µM)
isolate (source animal id): 154	16 (≈ 33.5 µM)
isolate (source animal id): 156	16 (≈ 33.5 µM)
isolate (source animal id): 157	8 (≈ 16.8 µM)
isolate (source animal id): 176	≤ 1
isolate (source animal id): 183	≤ 1
isolate (source animal id): 186	≤ 1
isolate (source animal id): 196	8 (≈ 16.8 µM)
isolate (source animal id): 198	8 (≈ 16.8 µM)
isolate (source animal id): 200	8 (≈ 16.8 µM)
isolate (source animal id): 206	8 (≈ 16.8 µM)
isolate (source animal id): 208	8 (≈ 16.8 µM)
isolate (source animal id): 210	8 (≈ 16.8 µM)
isolate (source animal id): 212	4 (≈ 8.38 µM)
isolate (source animal id): 215	8 (≈ 16.8 µM)
isolate (source animal id): 216	8 (≈ 16.8 µM)
isolate (source animal id): 218	8 (≈ 16.8 µM)
isolate (source animal id): 219	8 (≈ 16.8 µM)
isolate (source animal id): 224	8 (≈ 16.8 µM)
isolate (source animal id): 228	2 (≈ 4.19 µM)
isolate (source animal id): 230	≤ 1
isolate (source animal id): 233	2 (≈ 4.19 µM)
isolate (source animal id): 238	≤ 1
isolate (source animal id): 239	2 (≈ 4.19 µM)
isolate (source animal id): 241	2 (≈ 4.19 µM)
isolate (source animal id): 242	2 (≈ 4.19 µM)
isolate (source animal id): 243	≤ 1
isolate (source animal id): 245	≤ 1
isolate (source animal id): 246	2 (≈ 4.19 µM)
isolate (source animal id): 247	≤ 1
isolate (source animal id): 248	≤ 1
isolate (source animal id): 250	≤ 1
isolate (source animal id): 251	≤ 1
isolate (source animal id): 252	2 (≈ 4.19 µM)
isolate (source animal id): 254	≤ 1
isolate (source animal id): 258	4 (≈ 8.38 µM)
isolate (source animal id): 259	8 (≈ 16.8 µM)
isolate (source animal id): 262	4 (≈ 8.38 µM)
isolate (source animal id): 264	4 (≈ 8.38 µM)
isolate (source animal id): 265	> 16
isolate (source animal id): 266	8 (≈ 16.8 µM)
isolate (source animal id): 267	8 (≈ 16.8 µM)
isolate (source animal id): 269	4 (≈ 8.38 µM)
isolate (source animal id): 271	8 (≈ 16.8 µM)
isolate (source animal id): 272	> 16
isolate (source animal id): 274	4 (≈ 8.38 µM)
isolate (source animal id): 276	≤ 1
isolate (source animal id): 278	8 (≈ 16.8 µM)
isolate (source animal id): 280	> 16
isolate (source animal id): 281	8 (≈ 16.8 µM)
isolate (source animal id): 283	4 (≈ 8.38 µM)
isolate (source animal id): 288	16 (≈ 33.5 µM)
isolate (source animal id): 291	8 (≈ 16.8 µM)
isolate (source animal id): 292	16 (≈ 33.5 µM)
isolate (source animal id): 296	8 (≈ 16.8 µM)
isolate (source animal id): 306	8 (≈ 16.8 µM)
isolate (source animal id): 336	16 (≈ 33.5 µM)
isolate (source animal id): 337	16 (≈ 33.5 µM)
isolate (source animal id): 341	8 (≈ 16.8 µM)
